What was measured:
[1] = system: skeletal muscle of the rat (chronic ischemic); assay: Effect on the contractility of the skeletal muscle after chronic ischemia (tiring index); assay type: in vivo, rat (male Wistar); conditions: 6 mg/kg p.o. over 7 days, n = 4-6; for TI of ischemic treated muscle: tiring index = maximum contractility / residual force after 5 min stimulation; for change in vivo at 6 mg/kg: Rattus norvegicus, po, 168 h, smaller value = more effective, read-out: Percentage change (TI of ischemic treated muscle vs TI of normal non-treated muscle)
Source text: 1) Effect on the Contractility of the Skeletal Muscle After Chronic Ischemia
In recent years, a marked change has taken place in ideas about the pathophysiology of chronic peripheral arterial occlusive disease as scientific interest has to an increasing extent shifted from the macrocirculation to the microcirculation. Disturbances in the microcirculation therefore manifest themselves in an undersupply of substrates with tissue ischemia resulting therefrom which, in turn, leads to an impairment in the function of the extremity concerned. The logical consequence of this is that the target organ skeletal muscle comes more and more into the forefront. […] The clinical activity is in fact also consistently determined in humans with the aid of the painless walking distance on the moving walkway.
Male Wistar rats having a body weight of 380 to 410 g were used as experimental animals. Under hexobarbital anesthesia (®Evipan--sodium, 200 mg/kg BW (=body weight) i.p.), a unilateral ligature of the right femoral artery was applied to the animals in the groin. After sprinkling penicillin sulfonamide powder for antibiotic wound care, the small operation wound was closed and the animals were continuously observed until they were completely awake. One week later, the administration of substance began by oral administration using a stomach tube (6 mg/kg BW, carboxymethylcellulose-sodium suspension) and was continued for 7 days (single administration per day, about 7h30 to 8h30). The contractility was measured 24 h after the last administration of substance in order to exclude acute effects, to be precise by the following experimental protocol:
Superfusion with physiological saline solution (37° C.) was used to avoid drying out and cooling. The mean arterial blood pressure was recorded continuously via Statham (=blood pressure measuring device) by means of a cannulated caroted artery to control the physiological status of the animals during the experiment. All animals breathed spontaneously by means of an inserted tracheal tube.
After these preparations, the muscle was made to contract (Stimulator I, Hugo Sachs, Federal Republic of Germany) by direct electrical stimulation (2.5 mA, 2 Hz). The absolute contractility in grams at various times of stimulation was used as the measured parameter. […] If the maximum contractility at the start of stimulation is now divided by the residual force remaining after 5 minutes' tiring stimulation, a "tiring index TI" for the muscle concerned can be calculated; the ability to tire here is larger the larger TI is numerically.
4 to 6 individual experiments were carried out for each test preparation.

[2] = system: laser-induced thrombosis in mesenterial arterioles; assay: Inhibition of laser-induced thrombosis in mesenterial arterioles of the rat; assay type: in vivo, rat (female Sprague-Dawley); conditions: Rattus norvegicus, po, read-out: Percentage change vs control (inhibition of laser-induced thrombosis); for inhibition in vivo at 20 mg/kg: 20 mg/kg p.o.; for inhibition in vivo at 10 mg/kg: 10 mg/kg p.o.
[3] = Acute toxicity (LD50 range); conditions: mouse, in vivo, single administration, NMRI mice, 7 days
Experimental: The determination of the LD50 ranges was carried out in standard fashion by means of the mortality occurring in the course of 7 days in NMRI mice after single intravenous (i.v.) or intraperitoneal (i.p.) administration (NMRI=NIH Medical Research Institute).

[4] = system: photochemically-induced thrombosis in mesenterial arterioles; assay: Inhibition of photochemically-induced thrombosis in mesenterial arterioles; assay type: in vivo, rat
Experimental: In this model, rats were anesthetized as described above under 2). The investigations were carried out on mesenterial arterioles having a diameter of 11 to 50 lm. A thrombosis was induced in a modification in accordance with a method known from the literature (Herrmann, K. H. Microvasc. Res. 26, 238-249, 1983) and is based on the photochemical release of singlet oxygen, which leads locally to an endothelial lesion. The animals to be investigated received an intravenous injection of 0.3 ml of a 10% strength solution of fluorescein in isothiocyanate--Dextran 70 (FITC--Dextran 70 s, Sigma, Munich). The arterole was looked for under the microscope and centered in the observation field. The FITC--Dextran in the blood vessel was then excited using a special lamp and filter device (excitation 490 nm, emission 510 nm). For evaluation of thrombus formation, the time was taken which extended from the point of excitation to the formation of a first thrombus on the wall. 5 vessels in each animal were examined in this manner.

[5] = system: capillary bed of the skeletal muscle of the rat; assay: Laser-Doppler flow measurement of erythrocyte flux in acutely ischemic skeletal muscle; assay type: in vivo, rat (male Wistar); conditions: during occlusion
Experimental: Using laser-Doppler flow measurements (LDF), the erythrocyte flux (the number of cells flowing past under the laser beam x their velocity) can be measured in a noninvasive and continuous manner in the capillary bed of the skeletal muscle of the rat (perimed PF2 laser-Doppler flowmeter, Perimed, Sweden). […] The apparatus was set as follows: 12 kHz, gain 10, time constant 1.5 sec, 37° C. The right femoral artery of male Wistar rats having a body weight of 380-430 g was exposed and the skin and the connective tissue was dissected away over a small muscle area (anterior tibia). The probe was placed about 1 mm above this area. […] At this point, the test substances were infused intravenously in aqueous solution (0.03 and 0.6 mg/kg/min). The maximum percentage increase in the erythrocyte flux after administration of substance during the occlusion (see also Okyayuz-Baklouti, I., European J. of Pharmacology, 166: 75-86, 1989) was used as the measuring parameter for the substance activity. […] 3-7 animals were employed per preparation and dose.

acutely ischemic muscle = assay: Contractility in the acutely ischemic muscle; assay type: in vivo
Experimental: The contractility in the acutely ischemic muscle was measured in a similar experimental procedure, as described under 1). The muscle, initially normally supplied with blood, was made to contract isometrically by direct electrical stimulation (1.2 Hz, 2.5 mA). The right femoral artery was then occluded for 5 min by means of a clamp. […] The vessel was then reopened and the starting contractility before the first occlusion was attained. During the second occlusion which then followed, the preparations to be tested were administered intravenously in aqueous solution via the jugular vein. 4-8 animals were employed per preparation and dose. The decrease in the contractility during occlusion with and without substance administration was compared and the percentage change was used to evaluate the substance activity. The substances according to the invention, for example the compound of Example 7, were also remarkable in this test for outstanding effects.

laser-induced thrombosis [6] = assay: Inhibition of laser-induced thrombosis in hyperlipidemic, spontaneously hypertensive, stroke-prone rats; assay type: in vivo, rat (hyperlipidemic hypertensive)
laser-induced thrombosis [7] = assay: Inhibition of laser-induced thrombosis in atherosclerotic rabbits; assay type: in vivo, rabbit (atherosclerotic); conditions: 30 mg/kg daily for 14 days

Q: Which results are given for `CN1CCN(CCCNS(=O)(=O)c2cn(C)cn2)CC1` [Example 27, N-[3-(4-Methylpiperazino)propyl]-1-methyl-4-imidazolesulfonamide dihydrogenfumarate]?
A: TI of ischemic treated muscle [1]: 2.6; change in vivo at 6 mg/kg [1]: 32.6%; inhibition in vivo at 20 mg/kg [2]: 23%; LD50 at 168 h ([3]; iv): > 100 mg/kg

Q: Which “TI of ischemic treated muscle” value [1] does the source give for `CC(=O)CCCCn1c(=O)c2c(ncn2C)n(C)c1=O` [Pentoxyfylline, 1-(5-oxohexyl)-3,7-dimethylxanthine, reference compound] here?
A: 3.20

Q: And the change in vivo at 6 mg/kg [1]?
A: 43.5%

Q: And the “inhibition of photochemically-induced thrombosis” value ([4]; 1 mg/kg p.o.)?
A: 29%

Q: What about the “inhibition of photochemically-induced thrombosis” value ([4]; 3 mg/kg i.v.) of the same compound?
A: 3%

Q: What about the “inhibition of photochemically-induced thrombosis” value ([4]; 3 mg/kg p.o.) of the same compound?
A: 18%

Q: What about the “inhibition of photochemically-induced thrombosis” value ([4]; 10 mg/kg i.v.) of the same compound?
A: 38%

Q: What about the “inhibition of photochemically-induced thrombosis” value ([4]; 10 mg/kg p.o.) of the same compound?
A: 68%

Q: And the “maximum percentage increase in the erythrocyte flux” value (from here on “maximum percentage increase”) ([5]; 0.03 mg/kg/min i.v. infusion)?
A: 24.6%

Q: And the “maximum percentage increase” value ([5]; 0.6 mg/kg/min i.v. infusion)?
A: 33.1%

Q: What about the “activity in acute ischemic muscle contractility test (in words)” value (acutely ischemic muscle; i.v.) of the same compound?
A: only showed marginal activity

Q: Which “TI of ischemic treated muscle” value [1] does the source give for `Cn1cnc(S(=O)(=O)N2CCN(c3ccc(O)cc3)CC2)c1Cl` [Example 40] here?
A: 3.18

Q: What about the change in vivo at 6 mg/kg [1] of the same compound?
A: 34.7%

Q: And the inhibition in vivo at 10 mg/kg [2]?
A: 17%

Q: And the LD50 at 168 h ([3]; ip)?
A: > 1200 mg/kg

Q: For `Cn1cnc(S(=O)(=O)NCCCN2CCOCC2)c1` [Example 7, N-(3-Morpholinopropyl)-1-methyl-4-imidazolesulfonamide], which “TI of ischemic treated muscle” value [1] is on record?
A: 2.79

Q: And the change in vivo at 6 mg/kg [1]?
A: 0.3%

Q: What about the inhibition in vivo at 10 mg/kg [2] of the same compound?
A: 36%

Q: What about the LD50 at 168 h ([3]; iv) of the same compound?
A: > 100 mg/kg

Q: What about the “inhibition of laser-induced thrombosis” value (laser-induced thrombosis [6]; 10 mg/kg daily for 7 days) of the same compound?
A: 18%

Q: And the “inhibition of laser-induced thrombosis” value (laser-induced thrombosis [6]; 30 mg/kg daily for 7 days)?
A: 32%

Q: And the “inhibition of laser-induced thrombosis” value (laser-induced thrombosis [7])?
A: 36%

Q: What about the “inhibition of photochemically-induced thrombosis” value ([4]; 1 mg/kg p.o.) of the same compound?
A: 69%

Q: What about the “inhibition of photochemically-induced thrombosis” value ([4]; 3 mg/kg i.v.) of the same compound?
A: 36%

Q: What about the “inhibition of photochemically-induced thrombosis” value ([4]; 3 mg/kg p.o.) of the same compound?
A: 75%

Q: What about the “inhibition of photochemically-induced thrombosis” value ([4]; 10 mg/kg i.v.) of the same compound?
A: 56%

Q: And the “inhibition of photochemically-induced thrombosis” value ([4]; 10 mg/kg p.o.)?
A: 130%

Q: And the “inhibition of photochemically-induced thrombosis (in words)” value ([4]; rat, in vivo)?
A: inhibited in a dose-dependent and statistically significant manner

Q: What about the “maximum percentage increase” value ([5]; 0.03 mg/kg/min i.v. infusion) of the same compound?
A: +53.3%

Q: What about the “maximum percentage increase” value ([5]; 0.6 mg/kg/min i.v. infusion) of the same compound?
A: +80.6%

Q: And the “improvement of contractility in the acutely ischemic muscle” value (acutely ischemic muscle; 0.03 mg/kg/min i.v.)?
A: +17.2%

Q: And the “improvement of contractility in the acutely ischemic muscle” value (acutely ischemic muscle; 0.3 mg/kg/min i.v.)?
A: +25.2%

Q: For `Cl.Cn1cnc(S(=O)(=O)NCCCCCN2CCOCC2)c1Cl` [Example 34, N-(5-Morpholino-1-pentyl)-5-chloro-1-methyl-4-imidazolesulfonamide hydrochloride], which “TI of ischemic treated muscle” value [1] is on record?
A: 1.98

Q: And the change in vivo at 6 mg/kg [1]?
A: 0%

Q: And the inhibition in vivo at 10 mg/kg [2]?
A: 15%

Q: What about the LD50 at 168 h ([3]; iv) of the same compound?
A: > 100 mg/kg

Q: With `Cl.Cn1cnc(S(=O)(=O)NCCCCN2CCOCC2)c1` [Example 10, N-(4-morpholinobutyl)-1-methyl-4-imidazolesulfonamide hydrochloride] as the compound, how does the “TI of ischemic treated muscle” value [1] read?
A: 2.19

Q: And the change in vivo at 6 mg/kg [1]?
A: -3.6%

Q: What about the inhibition in vivo at 10 mg/kg [2] of the same compound?
A: 38%

Q: And the LD50 at 168 h ([3]; iv)?
A: > 100 mg/kg

Q: Which “TI of ischemic treated muscle” value [1] does the source give for `Cl.Cn1cnc(S(=O)(=O)NCc2ccc(CN3CCOCC3)cc2)c1` [Example 14, N-[4-(morpholinomethyl)benzyl]-1-methyl-4-imidazolesulfonamide hydrochloride] here?
A: 2.57

Q: And the change in vivo at 6 mg/kg [1]?
A: 13.4%

Q: What about the inhibition in vivo at 20 mg/kg [2] of the same compound?
A: 13%

Q: And the LD50 at 168 h ([3]; iv)?
A: > 100 mg/kg

Q: What does the source list for `Cl.Cn1cncc1S(=O)(=O)NCCCN1CCOCC1` [Example 53, N-(3-Morpholino-1-propyl)-1-methyl-5-imidazolesulfonamide hydrochloride]?
A: TI of ischemic treated muscle [1]: 3.18; change in vivo at 6 mg/kg [1]: -3.3%; inhibition in vivo at 10 mg/kg [2]: 18%; LD50 at 168 h ([3]; iv): > 100 mg/kg

Q: Which results are given for `Cn1cnc(S(=O)(=O)O)c1Cl` [Example 1, 5-Chloro-1-methyl-4-imidazolesulfonic acid]?
A: TI of ischemic treated muscle [1]: 2.26; change in vivo at 6 mg/kg [1]: 1.3%; inhibition in vivo at 10 mg/kg [2]: 13%; LD50 at 168 h ([3]; iv): > 200 mg/kg

Q: What does the source list for `Cn1cnc(S(=O)(=O)NCCc2ccc(O)cc2)c1Cl` [Example 46, N-(4-hydroxyphenethyl-)-5-chloro-1-methyl-4-imidazolesulfonamide]?
A: TI of ischemic treated muscle [1]: 2.05; change in vivo at 6 mg/kg [1]: -6.4%; inhibition in vivo at 10 mg/kg [2]: 29%; inhibition in vivo at 30 mg/kg ([2]; 30 mg/kg p.o.): 29%; LD50 at 168 h ([3]; ip): > 1200 mg/kg

Q: For `Cl.Cn1cnc(S(=O)(=O)NCCCN2CCOCC2)c1Cl` [Example 32, N-(3-Morpholinopropyl)-5-chloro-1-methyl-4-imidazolesulfonamide hydrochloride], which “TI of ischemic treated muscle” value [1] is on record?
A: 2.51

Q: What about the change in vivo at 6 mg/kg [1] of the same compound?
A: 6.4%

Q: And the inhibition in vivo at 10 mg/kg [2]?
A: 21%

Q: What about the LD50 at 168 h ([3]; iv) of the same compound?
A: > 200 mg/kg

Q: Which “TI of ischemic treated muscle” value [1] does the source give for `Cl.Cn1ccnc1S(=O)(=O)NCCN1CCOCC1` [Example 30, N-(2-Morpholinoethyl)-1-methyl-2-imidazolesulfonamide hydrochloride] here?
A: 2.82

Q: What about the change in vivo at 6 mg/kg [1] of the same compound?
A: -14.2%

Q: And the inhibition in vivo at 10 mg/kg [2]?
A: 45%

Q: What about the LD50 at 168 h ([3]; iv) of the same compound?
A: > 100 mg/kg

Reference: patent US5232922A, “Imidazole compounds, processes for their preparation, pharmaceuticals based on these compounds and some intermediates” (priority 1990, dated 1993)
